Laboratory results published in US20250326725A1, “PI4-Kinase Inhibitors and Methods of Using the Same” (The Board of Trustees of the Leland Stanford Junior …, priority 2019, published 2025).
pEC50, pIC50: −log10 of the molar value. “And” between values parts separate entries of the source, which are not always exact repeats. Equal values may be shown once.

Tests used:
[1] = Cell toxicity (CC50) in BK virus assay
[2] = tested on: HRV; test: Rhinovirus antiviral assay (EC50); type: cell-based; conditions: Human rhinovirus sp.
[3] = Cell toxicity (CC50) in HRV assay; conditions: human, HRV CC50
[4] = tested on: EV71; test: EV71 antiviral assay (EC50); type: cell-based, Enterovirus 71; conditions: Enterovirus A, EV71
[5] = Cell toxicity (CC50) in EV68 assay; conditions: EV68 CC50
[6] = Cell toxicity (CC50) in EV71 assay; conditions: EV71 CC50
[7] = tested on: BK virus (Polyomaviridae); test: BK virus antiviral assay (EC50); type: cell-based; conditions: Betapolyomavirus hominis
[8] = tested on: EV68; test: EV68 antiviral assay (EC50); type: cell-based
[9] = tested on: JC virus (Polyomaviridae); test: JC virus antiviral assay (EC50); type: cell-based; conditions: JC polyomavirus
[10] = Cell toxicity (CC50) in JC virus assay
[11] = target: T1, PI4KIIIalpha (Homo sapiens, UniProt P42356); test: PI-kinase assay, PI4KIIIalpha (Table 4); type: biochemical
T1 construct: made in house; host or cells: COS-7 cells, transient transfection, anti-HA immunoprecipitate on protein G Sepharose beads
Experimental: (§1) PI-kinase assay: Compounds are tested in C.1.1. PT kinase assays as described by Shokat et al., “A membrane capture assay for lipid kinase activity.” Nat. Protoc. 2007; 2(10):2459-66.
(§2) General methods of materials: In the assays described here, p110α-p85 complex and p110γ were acquired from Millipore. Assays were performed with La-phosphatidylinositol (Avanti) as described in Knight et al. Nat Protoc. 2007; 2 (10):2459-66. Inhibitor series were prepared 10% DMSO as 5× stocks for the assay. Assays of HsVps34 were performed as described in Knight et al, except that the final assay buffer composition used was changed to 20 mM HEPES 7.5, 100 mM NaCl, 3 mM MgCl, 1 mg/mL PI and 44 nM hvps34 was used in the assay. […] COS-7 cells were cultured in 10 cm dishes and transfected at 70% confluence with 10 μg of plasmid DNA (HA-tagged bovine PI4KIIIβ. HA-tagged human PI4KIIIα) using Lipofectamine 2000 and 5 ml Opti-MEM following the manufacturer's instructions. After 5 hours the transfection medium was replaced with 10 ml complete DMEM. 36 hrs post transfection, cells were washed once with 5 ml PBS (pH 7.4) and lysed in 1 ml of lysis buffer (1) on ice. Lysates were collected by scraping and after 15 min they were centrifuged at 13.000 rpm for 10 min. To the lysates was added 200 gi of protein G Sepharose 4 fast flow beads that were prewashed with PBS and lysis buffer and 2 sg of anti-HA antibody. The tubes were then incubated overnight at 4 degrees C. in a tube rotator. The Sepharose beads in the lysate were washed twice with 150 mM NaCl in RIPA buffer, twice with RIPA buffer and once with kinase buffer (50 mM Tris/HCl, pH 7.5, 20 mM MgCl2, 1 mM EFTA, 1 mM PtdIns, 0.4% Triton X-100, 0.5 mg/mL BSA) and finally the beads were resuspended in 200 μL kinase buffer. Kinase reactions were run in a mixture of 45 μL of PI buffer (1 mM P1 in kinase buffer), 10 μL of immunoprecipitated beads, 2 µL of inhibitors (dissolved and diluted in DMSO) or DMSO and 5 μL of [γ-^32P]-ATP (1 mM and 2 μCi/tube). The immunoprecipitates in PI buffer were pre-incubated with the drugs for 20 min prior the initiation of kinase reaction by adding ATP and the reactions were carried out for 30 min in 15 ml polyproplyene tubes. Reactions were terminated by addition of 3 ml of CHCl3:CH3OH:HCl (200:100:0.75) followed by 0.6 ml of 0.61N HCl to induce phase separation. The mixtures were vortexed, centrifuged at 2000 rpm for 2 min and the upper phase was discarded. To the lower phase was added 1.5 ml of CHCl3:CH3OH:0.6N HCl (3:48:47) and the mixture vortexed and centrifuged at 2000 rpm for 2 ruin. The lower phase was then transferred to counting vials and evaporated. Samples were counted in a scintillation beta counter after adding 5 ml of Instafluor (Perkin-Elmer).
(§3) Selected compounds of Tables 1-3 were prepared and tested for inhibition activity in a variety of kinase assays.

[12] = target: T2, PI4KIIIbeta (Bos taurus, UniProt O02810); test: PI-kinase assay, PI4KIIIbeta (Table 4); type: biochemical, bovine
T2 construct: made in house; host or cells: COS-7 cells, transient transfection, anti-HA immunoprecipitate on protein G Sepharose beads
Experimental: as §1, §2, §3

[13] = tested on: lung cancer cell lines; test: Cell proliferation in monolayer culture (WST-1); type: cell-based, human; conditions: panel of lung cancer cell lines
Experimental: (§4) Human lung cancer cells (A549, H1299, H460, H23, H2122, and H3122) were cultured in RPMI 1640 containing 10% FBS. Cells were maintained at 37° C. in an incubator with a humidified atmosphere containing 5% CO2.
(§5) To assess the anti-cancer activity of exemplary PI4K antagonists, a panel of lung cancer cell lines annotated for the presence or absence of PI4K amplifications were treated with PI4K inhibitors (IN-9, TN-10, or compound B) that have greater than 1000-fold selectivity […] PI4KIIIβ over class I and class III PI3K family members. […] IC50 values were even lower with the presence of PI4K amplifications.
(§6) PI4KIIIβ is a target in human cancers, including lung adenocarcinoma. (FIG. 1A). PI4P concentrations in H2122 cells (dots) treated in triplicate (dots) with Compound B or vehicle dimethyl sulfoxide (DMS). (FIG. 1B) Relative densities of PI4-kinase-amplified (red) and -diploid (black) human lung adenocarcinoma cell lines determined by WST-1 assays after 5 days of Compound B treatment. Results expressed relative to the lowest dose, which was set at 100%. (FIG. 1B, right panel) Half maximal inhibitory (IC50) concentrations of compound B determined from FIG. 1B, left panel. (FIG. 1C) Migrated and invaded 1-23 human lung adenocarcinoma cells in Transwell chambers were photographed (images) and counted (bar graphs) after treatment with compound B. Results expressed relative to DMSO-treated cells, which were set at 1.0. (FIG. 1C, right panel). Colonies formed by H2122 human lung cancer cells in soft agarose (FIG. 1D) and on plastic (FIG. 1E) were photographed (images) and counted (bar graphs) after 7 days of treatment with the indicated doses of compound B or vehicle DMSO (0 M). Results expressed relative to DMSO control, which were set at 1.0. PI4-kinase inhibition leads to selective cytotoxicity for cancer cells (FIG. 1F).

[14] = tested on: lung cancer cell lines; test: PI4P levels in lung cancer cell lines; type: cell-based, human; conditions: panel of lung cancer cell lines
Experimental: as §4, §5, §6

[15] = tested on: lung cancer cell lines; test: Colony formation in soft agar and on plastic; type: cell-based, human; conditions: panel of lung cancer cell lines
Experimental: as §4, §5, §6

[16] = tested on: lung cancer cell lines; test: Migration and invasion in Boyden chambers; type: cell-based, human; conditions: panel of lung cancer cell lines
Experimental: as §4, §5, §6

[17] = tested on: Human HPV (Papillomaviridae); test: Human HPV antiviral assay (EC50); type: cell-based, human papilloma virus; conditions: Human papillomavirus, read-out: Human HPV (Papillomaviridae) EC50
[18] = Cell toxicity (CC50) in HPV assay
[19] = Microsomal stability, human liver microsomes; type: in vitro ADME; conditions: for half-life: read-out: HLM/MLM (t ½ min): HLM
[20] = tested on: HeLa S3 cells; test: Cell toxicity (CC50) in HRV assay; conditions: human
[21] = tested on: cells (EV68 assay); test: Cell toxicity (CC50) in EV68 assay
[22] = tested on: cells (EV71 assay); test: Cell toxicity (CC50) in EV71 assay
[23] = Microsomal stability, mouse liver microsomes; type: in vitro ADME
[24] = tested on: HCV; test: Anti-HCV assay (EC50); type: cell-based; conditions: Hepatitis C virus, read-out: HCV EC50
Experimental: Anti-HCV assay: Anti-HCV assays are performed as described by Cho et al. “Identification of a class of HCV inhibitors directed against the nonstructural protein NS4B.” Sci. Transl. Med. 2011; 2(15):15ra6.

[25] = Caco-2 permeability assay; type: in vitro ADME; conditions: human, read-out: Caco2 Papp × 1e−6 cm/s
Experimental: Compounds of interest were tested in a variety of cell-based assays for antiviral activity.

[26] = read-out: HLM/MLM (t ½ min): MLM
[27] = with ritonavir (concentration not stated), + Ritonavir, read-out: HLM/MLM (t ½ min) + Ritonavir: MLM

T1 sequence (P42356 whole entry): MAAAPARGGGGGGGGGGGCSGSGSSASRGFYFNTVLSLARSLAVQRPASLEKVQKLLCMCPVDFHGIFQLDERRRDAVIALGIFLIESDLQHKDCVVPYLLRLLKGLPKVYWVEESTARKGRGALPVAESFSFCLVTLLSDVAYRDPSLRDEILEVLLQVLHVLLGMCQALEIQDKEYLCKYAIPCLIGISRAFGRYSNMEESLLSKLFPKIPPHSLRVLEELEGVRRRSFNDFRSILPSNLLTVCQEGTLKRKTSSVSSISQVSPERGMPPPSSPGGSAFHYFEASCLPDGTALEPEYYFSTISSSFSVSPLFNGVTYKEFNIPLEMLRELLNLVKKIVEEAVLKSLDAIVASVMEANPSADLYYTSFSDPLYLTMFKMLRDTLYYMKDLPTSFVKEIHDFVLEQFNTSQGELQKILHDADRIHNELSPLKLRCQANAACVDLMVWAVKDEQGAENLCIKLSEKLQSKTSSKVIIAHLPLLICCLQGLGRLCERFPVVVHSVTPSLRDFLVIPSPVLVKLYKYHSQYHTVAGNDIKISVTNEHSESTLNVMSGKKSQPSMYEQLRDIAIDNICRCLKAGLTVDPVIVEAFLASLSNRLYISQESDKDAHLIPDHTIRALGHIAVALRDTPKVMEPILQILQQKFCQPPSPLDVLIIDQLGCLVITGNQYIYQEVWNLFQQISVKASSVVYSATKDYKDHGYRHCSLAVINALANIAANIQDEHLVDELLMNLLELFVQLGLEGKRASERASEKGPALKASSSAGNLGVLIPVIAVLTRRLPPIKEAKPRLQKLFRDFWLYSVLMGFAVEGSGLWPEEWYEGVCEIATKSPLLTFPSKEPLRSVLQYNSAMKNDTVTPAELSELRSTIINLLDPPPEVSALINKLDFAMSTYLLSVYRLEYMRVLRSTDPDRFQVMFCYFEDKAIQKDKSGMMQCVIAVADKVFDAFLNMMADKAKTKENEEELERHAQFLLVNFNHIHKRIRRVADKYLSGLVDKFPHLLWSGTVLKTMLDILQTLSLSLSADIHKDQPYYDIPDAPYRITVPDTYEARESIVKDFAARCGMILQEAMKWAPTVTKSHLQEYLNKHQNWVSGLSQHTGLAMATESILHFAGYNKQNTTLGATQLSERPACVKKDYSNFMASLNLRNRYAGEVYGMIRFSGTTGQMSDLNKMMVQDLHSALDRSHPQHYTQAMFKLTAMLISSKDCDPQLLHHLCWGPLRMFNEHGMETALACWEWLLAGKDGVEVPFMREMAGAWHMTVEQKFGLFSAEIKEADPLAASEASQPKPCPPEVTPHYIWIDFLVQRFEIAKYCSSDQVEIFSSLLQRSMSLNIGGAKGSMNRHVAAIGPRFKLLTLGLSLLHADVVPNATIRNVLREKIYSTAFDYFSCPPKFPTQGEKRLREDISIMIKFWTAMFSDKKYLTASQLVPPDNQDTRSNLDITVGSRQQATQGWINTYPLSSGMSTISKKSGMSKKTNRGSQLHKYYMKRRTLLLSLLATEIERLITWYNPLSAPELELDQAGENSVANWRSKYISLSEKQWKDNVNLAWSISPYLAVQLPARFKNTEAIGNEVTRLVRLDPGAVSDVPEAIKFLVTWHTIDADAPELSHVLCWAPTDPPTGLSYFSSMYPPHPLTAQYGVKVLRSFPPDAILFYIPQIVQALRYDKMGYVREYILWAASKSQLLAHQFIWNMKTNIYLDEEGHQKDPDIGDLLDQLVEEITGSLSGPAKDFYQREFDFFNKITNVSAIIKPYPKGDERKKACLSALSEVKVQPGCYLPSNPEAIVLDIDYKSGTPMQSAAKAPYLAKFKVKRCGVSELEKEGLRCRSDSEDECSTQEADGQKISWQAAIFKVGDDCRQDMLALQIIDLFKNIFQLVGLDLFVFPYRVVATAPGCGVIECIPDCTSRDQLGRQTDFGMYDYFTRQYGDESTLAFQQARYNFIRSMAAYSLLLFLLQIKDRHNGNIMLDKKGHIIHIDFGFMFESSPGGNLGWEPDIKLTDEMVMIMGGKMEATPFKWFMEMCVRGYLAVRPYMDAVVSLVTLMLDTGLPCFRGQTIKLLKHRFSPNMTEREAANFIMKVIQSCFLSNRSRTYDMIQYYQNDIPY
T2 sequence (O02810 whole entry): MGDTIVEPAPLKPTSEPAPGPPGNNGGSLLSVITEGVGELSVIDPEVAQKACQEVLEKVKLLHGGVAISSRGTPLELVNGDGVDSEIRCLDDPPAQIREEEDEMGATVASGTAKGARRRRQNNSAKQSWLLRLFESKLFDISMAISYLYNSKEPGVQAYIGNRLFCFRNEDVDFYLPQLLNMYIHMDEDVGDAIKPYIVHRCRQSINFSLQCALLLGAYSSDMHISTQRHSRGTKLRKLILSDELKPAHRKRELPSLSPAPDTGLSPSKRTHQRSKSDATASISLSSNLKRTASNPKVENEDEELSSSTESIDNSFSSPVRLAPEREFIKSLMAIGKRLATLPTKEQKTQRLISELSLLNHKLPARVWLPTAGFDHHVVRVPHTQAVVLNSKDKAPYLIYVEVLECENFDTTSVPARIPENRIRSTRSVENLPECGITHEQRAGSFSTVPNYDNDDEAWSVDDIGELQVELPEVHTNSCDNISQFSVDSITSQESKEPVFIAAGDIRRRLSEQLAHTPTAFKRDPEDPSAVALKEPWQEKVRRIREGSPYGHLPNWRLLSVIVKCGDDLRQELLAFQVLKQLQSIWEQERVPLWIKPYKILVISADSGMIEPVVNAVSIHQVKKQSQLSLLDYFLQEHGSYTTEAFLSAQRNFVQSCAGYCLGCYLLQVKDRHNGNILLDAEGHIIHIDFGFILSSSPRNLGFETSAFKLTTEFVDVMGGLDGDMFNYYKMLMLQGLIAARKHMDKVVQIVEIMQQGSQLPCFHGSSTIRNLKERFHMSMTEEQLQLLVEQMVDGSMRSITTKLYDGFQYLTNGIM

SMILES: COc1ccc(-c2sc(NC(C)C3CCOCC3)nc2C)cc1S(=O)(=O)Nc1c(C)cccc1F (centres unmarked) [Compound S-76]
- CC50 [1]: 27 µM
- pEC50 [2]: 8.72
- CC50 [3]: 9.3 µM
- pEC50 [4]: 8.74
- CC50 [5]: 9.4 µM
- CC50 [6]: 36 µM
- pEC50 [7]: > 9.22
- pEC50 [8]: 8.30

SMILES: Nc1ccn(C[C@@H](CO)OCP(=O)(O)O)c(=O)n1 [PC1, cidofovir, reference compound]
- CC50 [1]: > 100 µM
- pEC50 [9]: 4.53
- pEC50 [7]: 6.51
- CC50 [10]: > 150 µM

SMILES: COc1ccc(-c2sc(NC(C)(C)C3CCOCC3)nc2C)cc1S(=O)(=O)Nc1c(C)cccc1F [Compound C]
- CC50 [1]: > 100 µM
- pIC50 [11]: < 5.00
- pIC50 [12]: > 7.00
- pEC50 [7]: 7.15

SMILES: COc1ccc(-c2sc(NC(=O)C3CCCC3)nc2C)cc1S(=O)(=O)Nc1ccc(O)cc1 [PI4KIIIbeta-IN-9]
- cell proliferation in monolayer culture [13]: reduced cell proliferation in monolayer culture
- PI4P levels [14]: decreased PI4P levels in a dose-dependent fashion
- colony formation in soft agar and on plastic [15]: reduced
- migration and invasion in Boyden chambers [16]: reduced

SMILES: Nc1nc2c(ncn2CCOCP(=O)(O)O)c(=O)[nH]1 [PC2, 9-[2-(phosphono-methoxy)ethyl]guanine, reference compound]
- pEC50 [17]: 5.55
- CC50 [18]: > 150 µM

SMILES: COc1ccc(-c2sc(NC(C)(C)c3ccccn3)nc2C)cc1S(=O)(=O)Nc1c(C)cccc1F [Compound S-45]
- HLM/MLM (t ½ min) + Ritonavir: HLM [19]: 159 min
- half-life [19]: 14 min
- pEC50 [17]: 5.28
- pEC50 [2]: 9.30
- pIC50 [11]: < 5.00
- CC50 [20]: 52 µM
- CC50 [3]: 66.2 µM
- pIC50 [12]: > 7.00
- CC50 [18]: 77 µM
- pEC50 [9]: 5.33
- pEC50 [4]: 9.52
- CC50 [21]: 38 µM
- CC50 [5]: 73.2 µM
- CC50 [22]: 77 µM
- CC50 [6]: 87.3 µM
- half-life [23, 26]: 10 min
- half-life [23, 27]: 67 min
- pEC50 [24]: 9.40
- pEC50 [8]: 8.70 and 8.54
- CC50 [10]: > 150 µM

SMILES: COc1ccc(-c2sc(NC(C)(C)c3ccccc3)nc2C)cc1S(=O)(=O)NC1CCN(C(C)=O)CC1 [Compound S-42]
- HLM/MLM (t ½ min) + Ritonavir: HLM [19]: 159 min
- half-life [19]: 10 min
- pEC50 [2]: 9.05
- pIC50 [11]: < 5.00
- CC50 [3]: 100 µM
- pIC50 [12]: > 7.00
- pEC50 [9]: 5.09
- pEC50 [4]: 9.52
- CC50 [5]: 100 µM
- CC50 [22]: 100 µM
- CC50 [6]: 103 µM
- half-life [23, 26]: 14 min
- half-life [23, 27]: 82 min
- pEC50 [24]: 9.15
- Papp [25]: 14 ×10⁻⁶ cm/s
- pEC50 [8]: 8.72 and 8.80
- CC50 [10]: > 150 µM
